Consider 1 compound from article PMC5374420, “In Search of Small Molecule Inhibitors Targeting the Flexible CK2 Subunit Interface” (Pharmaceuticals, 2017).

Where a SMILES comes first, the peptide text is derived from it. Bridges are numbered along the chain shown (N, C = ends).

Assay [1] addresses T1, CK2α/CK2β interaction in MCF-10A cells (Homo sapiens, UniProt P68400).
T1 construct: endogenous in cells; host or cells: MCF-10A (WT)
As to the kind of experiment: CK2β immunoprecipitation from treated cells, Western blot of CK2α. Conditions: WT MCF-10A cells, 50 µM for 2 h, compared with TAT. The format is cell-based. Here is the method: To assess the cell-penetrating properties of TAT-Pc 13, we used a tetramethylrhodamine-conjugated TAT-Pc 13 analogue (TAMRA-TAT-Pc 13). The cellular uptake of this fluorescently labeled peptide was very rapid: only 2 min after incubation, the peptide was detectable in MCF-10A cells and plateauing after 5 min (Figure 7A). The impact of TAT-Pc 13 cell uptake on the expression of the CK2 subunits in WT and CK2β-depleted MCF-10A cells was evaluated by Western blot. […] We next evaluated the effect of TAT-Pc 13 on the CK2 subunit association using two independent strategies. First, CK2β was immunoprecipitated in extracts of MCF-10A cells treated with TAT or TAT-Pc 13 and the amount of CK2α recovered in the immunoprecipitates was analyzed by Western blot.
Figure 7 Uptake and cellular effects of TAT-Pc 13. (A) kinetic of TAMRA-TAT-Pc 13 uptake in MCF-10A cells; (B) WT or CK2β-depleted MCF-10A cells were incubated with 50 µM TAT or TAT-Pc 13 for 8 h and the expression of CK2 subunits was evaluated by Western blot; (C) anti-CK2β immunoprecipitates were prepared from WT MCF-10A cells incubated with 50 µM TAT or TAT-Pc 13 for 2 h. Presence of CK2 subunits in the corresponding immunoprecipitates was determined by Western blot; (D) in situ proximity ligation images of MCF-10A cells incubated with 50 µM TAT (a,b,d) or TAT-Pc 13 (c) for 6 h. […]

The target in another assay is T2, CK2α–CK2β interaction (Homo sapiens, UniProt P68400).
T2 construct: made in house
T2 sequence (P68400 whole entry): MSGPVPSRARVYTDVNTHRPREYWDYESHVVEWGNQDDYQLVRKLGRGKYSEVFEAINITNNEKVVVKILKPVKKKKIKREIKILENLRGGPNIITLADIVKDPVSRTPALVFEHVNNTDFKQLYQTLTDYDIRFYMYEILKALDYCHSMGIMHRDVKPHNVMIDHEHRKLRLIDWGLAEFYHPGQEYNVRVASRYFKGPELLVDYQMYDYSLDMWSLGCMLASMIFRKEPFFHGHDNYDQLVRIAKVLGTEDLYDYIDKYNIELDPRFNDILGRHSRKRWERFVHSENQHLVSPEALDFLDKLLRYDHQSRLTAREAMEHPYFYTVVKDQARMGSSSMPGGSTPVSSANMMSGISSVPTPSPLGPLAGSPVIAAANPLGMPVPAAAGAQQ
The assay can be described thus: In vitro CK2α–CK2β interaction assay. Format: binding. Conditions: read-out: inhibition of subunit interaction. Here is the method:
Figure 4 Inhibitory activity of a TAT-Pc analogue in vitro. (A) CK2 holoenzyme (100 nM) was incubated in the presence of increasing concentrations of TAT-Pc 13 for 15 min at 4 °C. CK2 activity was then determined with CK2β-dependent or independent peptide substrates; (B) [^35S]-labeled CK2α was incubated with biotinylated MBP-CK2β immobilized on streptavidin coated plates (preformed complex) in the absence (1) or presence (2) of TAT-Pc 13. Alternatively, [^35S]-labeled CK2α was incubated with TAT-Pc 13 (3) or random TAT-Pc 13 (4) and then with immobilized biotinylated MBP-CK2β. After washing, the amount of [^35S]-labeled CK2α remaining in the complex was determined by radioactivity counting. Representative data shown from two independent experiments. Results are presented as mean ± s.d. of triplicates.
The CK2α–CK2β interaction assay involved competition between plate-bound biotinylated MBP–CK2β and various cyclic peptides for binding to [^35S] methionine-labelled CK2α. The assay was performed as previously described in [15].

In a further assay the test system is WT MCF-10A cells. The assay can be described thus: Cell death / viability, LIVE&DEAD assay, WT cells. The format is cell-based. The procedure:
Figure 8 Cellular effects of TAT-Pc 13. (A) MCF-10A cells were incubated with 25 µM of TAT-Pc 13 for 3 h and imaged with phase microscopy (upper panel) or with increasing concentrations of TAT-Pc 13 for 2 h and cell viability was evaluated using the LIVE&DEAD™ assay. Live cells fluoresce bright green (530 nm), whereas dead cells fluoresce red-orange (645 nm) (lower panel, scale bare: 100 µm); (B) WT (○-○) or CK2β-depleted (●-●) MCF-10A cells were incubated for 4 h with increasing concentrations of TAT-Pc 13 and cell death was evaluated using the LIVE&DEAD™ assay recording fluorescence at 645 nm. Representative data shown from two independent experiments in duplicate; (C) MCF-10A cells were pre-treated in the absence or presence of 20 µM z-VAD for 5 h and then incubated for 4 h with 25 µM random TAT-Pc 13 or TAT-Pc 13 and cell viability was evaluated as in (A) (scale bare: 100 µm); and (D) intracellular events induced by increasing concentrations of TAT-Pc 13. After 12 h of treatment, 786-O cells were lysed and analyzed by Western blot. TEXT PRINTED IN THE PICTURE: (B) TAT-Pc 13: TAT-Pc 13 (μM): 48; TAT-Pc 13 (μM): 60 DOUBTS OF THE COPYIST ABOUT THIS PICTURE: Panel B: 48 and 60 are printed in red at the x axis, where dashed lines drop from the two curves at about 50 on the Cell death (%) axis. No measure name (e.g. IC50) is printed with them.
Cells were seeded in 96-well microtiter plates at a concentration of 1 × 10^5 cells/mL and were allowed to attach for 24 h at 37 °C in 5% CO2. Cells were then exposed to different concentrations of TAT-Pc 13 for the indicated time. Cell viability was evaluated using the fluorescence-based LIVE&DEAD™ assay (Molecular Probes, Thermo Fisher Scientific, Courtaboeuf, France) according to the manufacturer. Images were taken with an Apotome-equipped Zeiss Axioimager microscope (Zeiss, Oberkochen, German) recording the fluorescence at 530 nm (Live cells) and 645 nm (dead cells) respectively using a FluoStar Optima plate reader (BMG LabTech, Ortenberg, Germany).

Where [2] appears, read: both WT and CK2β-depleted MCF-10A cells, 4 h.

T1 sequence (P68400 whole entry): as above

In the case of `CC[C@H](C)[C@@H]1NC(=O)[C@H](CCCCN)NC(=O)[C@H](Cc2ccccc2)NC(=O)CNC(=O)[C@H](Cc2ccc(O)cc2)NC(=O)[C@H](CC(C)C)NC(=O)[C@H](CCCNC(=N)N)NC(=O)CNC(=O)CNC(=O)[C@@H](NC(=O)[C@H](CCC(N)=O)NC(=O)[C@@H]2CCCN2C(=O)[C@@H]2CCCN2C(=O)[C@H](CCCNC(=N)N)NC(=O)[C@H](CCCNC(=N)N)NC(=O)[C@H](CCCNC(=N)N)NC(=O)[C@H](CCC(N)=O)NC(=O)[C@H](CCCNC(=N)N)NC(=O)[C@H](CCCNC(=N)N)NC(=O)[C@H](CCCCN)NC(=O)[C@H](CCCCN)NC(=O)[C@H](CCCNC(=N)N)NC(=O)CN)CCCCNC(=O)CNC(=O)CNC(=O)[C@H](Cc2c[nH]cn2)NC1=O` [TAT-Pc 13] (H-GRKKRRQRRRPPQKGGRLYGFKIHGG; lactam 14-C; N-terminus assumed), in assay [1], the “CK2α recovered in CK2β immunoprecipitates” value is given as “significantly less CK2α”. The inhibition at 50 µM at CK2α–CK2β interaction is 80%. In the assay on WT MCF-10A cells (setting [2]), the “concentration at which cell death became massive” value is 50 to 60 µM and the “concentration at which cell death was already detectable” value is 25 µM. Moreover, in the assay with WT MCF-10A cells (three hours after addition, 25 µM (Figure 8A), phase microscopy), the “cells rounded up and shrank” value was “more than 50%”.

A word on the inhibition: it is the percentage by which the read-out fell short of the control.
